Laboratory results published in US4758586A, “Indolyl compounds and hyposensitivity use thereof” (USV Pharmaceutical Corp., priority 1986, dated 1988).
Read-outs that look alike come from different tables or passages of the source. Values belong to the compound of their own block, whether it stands above or below them.

Key:
Phospholipase A2 (PLA2) = target: T1, Phospholipase A2 (PLA2) (Rattus norvegicus, UniProt P14423); experiment: In vitro assay for inhibitors of Phospholipase A2 (PLA2) from rat platelets; format: biochemical
T1 construct: obtained by aggregation of purified rat platelets; from tissue; host or cells: rat platelets (enzyme obtained by aggregation)
T1 sequence (P14423 22-146): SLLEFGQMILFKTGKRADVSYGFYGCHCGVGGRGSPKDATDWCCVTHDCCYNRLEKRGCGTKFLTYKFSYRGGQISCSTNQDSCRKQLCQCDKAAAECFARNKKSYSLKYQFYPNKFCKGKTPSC
Excerpt: B. In Vitro Assay For Inhibitors of Phospholipase A2 Assayed at pH 7.0 (PLA2)
The PLA2 employed in this screen is obtained by aggregation of purified rat platelets. In the enzyme assay phosphatidylcholine having ^14 C-labeled palmitate residues at R1 and R2 is employed as substrate. PLA2 acts by cleaving the R2 fatty acid ester bond yielding free fatty acid and lysophosphatidyl choline as follows: [drawing 19]
Following completion of the reaction, the assay medium is acidified and extracted with hexane, which takes up unreacted substrate and free fatty acid product. The hexane extract is passed over a short silica column which retains 99% of the phosphatidyl choline. The ^14 C-labeled palmitic acid is not retained (90% recovery in eluate) and is collected directly in scintillation counting vials. The released palmitic acid is conveniently quantitated by liquid scintillation spectrometry.
The compounds were tested at 100 uM in a buffer containing 0.3 mM unlabeled phosphatidylcholine (PC), 20-30,000 cpm of ^14 C(CPC), […], 1 mM CaCl2 and 50 mM tris-HCl adjusted to pH 7.2 with 1N NaOH. […] The temperature of the buffer was maintained at a temperature of 37° C. The reaction was initiated by addition of the enzyme and it was terminated 30 minutes later by the addition of […] of 1N HCl.
Following acidification, the samples were extracted with 2 ml of 2-propanol and 2 ml of hexane, vortexed and allowed to stand until the phases separated. Free fatty acids (FFA) and some unreacted substrate were taken up in the isopropanol-saturated hexane. The hexane phase of the extraction mixture was transferred to a short silica gel column which retained […] but not the FFA. The column effluent was collected directly in scintillation vials. The columns were washed once with an additional 2 ml of hexane. The radio labeled FFA were quantitated by liquid scintillation spectrometry.

Phospholipase C (PLC) = experiment: In vitro assay for inhibitors of Phospholipase C (PLC) from rat platelets; format: biochemical; conditions: at level tested (300 u)
Excerpt: A. Protocol For In Vitro Assay For Inhibitors Of Phospholipase C (PLC)
The PLC employed in this screen is obtained by aggregation of purified rat platelets in the presence of CaCl2 and ADP. In the enzyme assay phosphatidylinositol having ^3 H -labeled arachidonate residues at R2 is employed as substrate. PLC acts by cleaving the phosphate ester bond yielding diglyceride as follows: [drawing 18]
Following completion of the reaction, the assay medium is acidified and extracted with hexane which takes up unreacted substrate and diglyceride. The hexane extract is passed over a short silica gel column which retains 99% of the phosphatidylinositol. The ^3 H-labeled diglyceride is not retained […]. The diglyceride is conveniently quantitated by liquid scintillation spectrometry.
The compounds were tested at 300 u in a buffer containing 0.06 mM unlabeled phosphatidylcholine (PC), 20-30,000 cpm of (CPC), 150 mM NaCl, 5 mM CaCl2 and 50 mM tris(hydroxymethyl)methylaminopropanesulfonic acid buffer, adjusted to pH 9.0 with 1N NaOH. The temperature of the buffer was maintained at a temperature of 37° C. The reaction was initiated by addition of the enzyme and it was terminated 10 minutes later by addition of 1 ml of 1N HCl.
Following acidification, the samples were extracted with 2 ml of isopropyl alcohol and 2 ml of hexane, vortexed and allowed to stand until the phases separate. […] and some unreacted substrate were taken up in the isopropanol-saturated hexane. The hexane phase of the extraction mixture was transferred to a short silica gel column which retains unreacted phosphatidylinositol, but not the 3H-diglyceride. The column effluent was collected directly in scintillation vials. The columns were washed once with additional 2 ml of hexane. The radiolabelled diglycerides were quantitated by liquid scintillation.

5-lipoxygenase = target: T2, 5-lipoxygenase (Rattus norvegicus, UniProt P12527); experiment: Protocol for detecting inhibitors of the lipoxygenase pathway (5-HETE formation in rat neutrophils); format: cell-based
T2 construct: A suspension of rat neutrophils in buffer; endogenous in cells; host or cells: rat neutrophils (PMN)
T2 sequence (P12527 1-673): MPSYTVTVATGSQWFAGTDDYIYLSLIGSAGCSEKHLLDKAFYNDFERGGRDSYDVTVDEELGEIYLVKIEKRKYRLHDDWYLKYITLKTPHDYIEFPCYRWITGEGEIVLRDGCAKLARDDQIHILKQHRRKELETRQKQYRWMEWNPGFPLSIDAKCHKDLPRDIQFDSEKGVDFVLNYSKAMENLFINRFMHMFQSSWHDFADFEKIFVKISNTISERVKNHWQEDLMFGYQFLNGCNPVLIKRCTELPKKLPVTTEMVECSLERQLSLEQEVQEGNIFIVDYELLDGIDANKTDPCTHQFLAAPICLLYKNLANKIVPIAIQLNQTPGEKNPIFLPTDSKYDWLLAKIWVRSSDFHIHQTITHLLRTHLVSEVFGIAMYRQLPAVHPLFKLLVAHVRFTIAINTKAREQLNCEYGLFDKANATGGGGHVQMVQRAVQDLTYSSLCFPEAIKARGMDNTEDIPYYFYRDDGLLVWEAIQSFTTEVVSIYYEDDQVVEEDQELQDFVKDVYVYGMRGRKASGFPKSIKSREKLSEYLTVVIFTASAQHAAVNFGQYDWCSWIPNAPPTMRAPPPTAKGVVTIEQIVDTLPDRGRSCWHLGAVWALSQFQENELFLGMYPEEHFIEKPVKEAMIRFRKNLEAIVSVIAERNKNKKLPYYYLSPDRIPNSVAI
Experimental: Protocol for Detecting Inhibitors of the Lipoxygenase Pathway
A suspension of rat neutrophils in buffer is incubated for 3 minutes at 30° C. with [^14 C]-arachidonic acid (AA) and Calcium Ionophore A23187. Citric acid (2M) is used to quench the reaction. Following the addition of a trace amount of (^3 H)-5-HETE together with an excess of unlabeled 5-HETE to each tube, the mixture is extracted with chloroform/methanol. The organic layer is washed with dilute acid and an aliquot is transferred to glass tubes and dried. The residue is dissolved in a small volume of chloroform and an aliquot is spotted on silica get TLC sheets, which are developed with an ethyl acetate/isooctane/water acetic acid solvent system. The 5-HETE spots are visualized with iodine, cut out and placed in scintillation vials for counting. After adjusting for the extraction efficiency, the amount (pmole) of [^14 C]-5-HETE in each of the tubes is quantitated. The net pmoles of 5-HETE are obtained by subtracting the pmoles of 5-HETE in the tubes containing […]. The ability of the test compounds to modulate the activity of this enzyme is determined by a decrease or increase in the net amount of 5-HETE produced.

[1] = system: leukotriene C4 -induced contraction of guinea pig peripheral strips; experiment: SRS-A antagonists (SALTI): leukotriene C4-induced contraction of guinea pig peripheral lung strips
Experimental: Protocol for SRS-A (Slow-reacting Substance of Anaphylaxis Antagonists (SALTI)
Peripheral strips of guinea pig lungs are prepared and hung in tissue baths (Metro #ME-5505, 10 ml) according to the published procedure (Pro. Nat'l. Acad. Sci., U.S.A. Volume 77, pp. 4354-4358, 1980). The strips are thoroughly rinsed in Assay Buffer and then connected with surgical silk thread to the support rods from the tissue baths. The rods are adjusted in the baths and the strips connected to the pressure transducers (Grass FT 103 or Gould UC-3). The tissue baths are aerated with 95% oxygen 5% carbon dioxide and maintained at 37° C. The Assay Buffer has been made as follows: For each liter of buffer the following are added to approximately 800 ml of water distilled in glass--6.87 g. NaCl, 0.4 g. KCl, […]. NaHCO3, 0.14 g. NaH2 PO4.H2 O, 0.21 g. MgSO4.7H2 O, and 2.0 g. D-glucose. Then a solution of 0.368 g. CaCl2.2H2 O in 100 ml glass-distilled water is slowly added to the buffer. Sufficient water is added to adjust the volume to one liter, and the solution is aerated with 95% oxygen--5% carbon dioxide. Usually 10 liters of buffer are used for an experiment with 4 tissues.
After the tissues have been repeatedly washed and allowed to equilibrate in the tissue bath, they are challenged with 1 μM histamine. After maximum contractions have been obtained, the tissues are washed, and allowed to relax back to baseline tension. This histamine challenge procedure is repeated at least 1 to 2 more times to obtain a repeatable control response. The average response to 1 μM histamine for each tissue is used to normalize all other challenges.
Responses of each tissue to a predetermined concentration of leukotriene are then obtained. Usually test compounds are examined initially at 30 μM on resting tension of the tissues without any added agonist or antagonist to determine if the compound has any possible intrinsic activity. The tissues are washed, and the test compound is added again. Leukotriene is added after the desired pre-incubation time. The intrinsic activity of the compounds, and their effect on leukotriene-induced contractions are then recorded.
The concentration required for 50% inhibition of 0.2 μM leukotriene C4 -induced contraction of guinea pig peripheral strips for representative compounds of the present invention is shown in Table 3.

[2] = Formula III, n=1 compounds, read-out: LOX I50 (Table 5)
[3] = Cavia porcellus, leukotriene-induced contraction, read-out: SALTI I50 (Table 5)
[4] = rat PMN, [14C]-arachidonic acid + A23187, 5-HETE, read-out: LOX, (RAT PMN) I50
[5] = Cavia porcellus, 0.2 μM leukotriene C4-induced contraction, read-out: SALTI, I50 μM
[6] = read-out: PLA2, inhibition level reached at 30 μM (Ixx = 30 μM)

SMILES: CCOC(=O)C=Cc1c[nH]c2ccccc12 [Ethyl β-(indol-3-yl)acrylate, reference compound]
PLA2 activity class (Table 5) (Phospholipase A2 (PLA2); at level tested (100 uM)): I
PLC activity class (Table 5) (Phospholipase C (PLC)): I
IC50 (5-lipoxygenase; [2]): 8 µM

IC50 [1, 3]: 20 µM
SMILES: Cc1c(C=CC(=O)O)c2ccccc2n1Cc1ccccc1 [B-(1-Benzyl-2-methyl-indol-3-yl)acrylic acid]

SMILES: CCOC(=O)C=Cc1cn(Cc2ccccc2)c2ccccc12 [Ethyl-B-(benzylindol-3-yl)acrylate, reference compound]
SALTI activity class (Table 5) ([1]; at level tested (initially 30 μM)): I

IC50 (5-lipoxygenase; [4]): 7.5 µM
SMILES: OCC=Cc1cn(Cc2ccccc2)c2ccccc12 [Example 13, 1-Benzyl-3-(3-Hydroxy-1-Propen-1-yl)Indole]

SMILES: COc1ccc2c(c1)c(C=CC=CC(=O)O)cn2Cc1ccccc1 [Example 7, 5-(1-Benzyl-5-methoxyindol-3-yl)-2,4-Pentadienoic Acid]
IC50 [1, 5]: 20 µM
inhibition at 30 µM (Phospholipase A2 (PLA2); [6]): 42%
IC50 (5-lipoxygenase; [4]): 6 µM

SMILES: O=C(O)C=CC=Cc1cn(Cc2ccccc2)c2ccccc12 [Example 2, 5-(1-Benzylindol-3-yl)-2,4-Pentadienoic Acid]
IC50 (Phospholipase A2 (PLA2)): 16 µM
IC50 (5-lipoxygenase; [4]): 2 µM

SMILES: CCOC(=O)C=Cc1c(C)n(Cc2ccccc2)c2ccccc12 [Ethyl B-(1-benzyl-2-methyl-indol-3-yl)acrylate]
PLC activity class (Table 5) (Phospholipase C (PLC)): I
IC50 (5-lipoxygenase; [2]): 1 µM

SMILES: O=C(O)C=Cc1cn(Cc2ccccc2)c2ccccc12 [B-(1-Benzylindol-3-yl)acrylic acid]
inhibition at 30 µM (Phospholipase A2 (PLA2); read-out: PLA2, inhibition level reached at 30 μM (printed I44 = 30 μM, Table 5)): 44%

SMILES: CCOC(=O)C=CC=Cc1cn(Cc2ccccc2)c2ccc(OCc3ccccc3)cc12 [Example 4, Ethyl 5-(1-Benzyl-5-Benzyloxyindol-3-yl)-2,4-Pentadienoate]
inhibition at 30 µM (Phospholipase A2 (PLA2); [6]): 37%

IC50 (5-lipoxygenase; [4]): 15 µM
SMILES: CCOC(=O)C=CC=Cc1c(C)n(Cc2ccccc2)c2ccccc12 [Example 11, Ethyl 5-(1-Benzyl-2-methylindol-3yl)-2,4-Pentadienoate]

IC50 (5-lipoxygenase; [4]): 4 µM
SMILES: CCOC(=O)C=CC=Cc1cn(Cc2ccccc2)c2ccc(OC)cc12 [Example 6, Ethyl 5-(1-Benzyl-5-Methoxyindol-3-yl)-2,4-Pentadienoate]

SMILES: CCOC(=O)C=Cc1cc2ccccc2[nH]1 [Ethyl B-(indol-2-yl)acrylate]
IC50 [1, 3]: 30 µM
PLC activity class (Table 5) (Phospholipase C (PLC)): I

IC50 (5-lipoxygenase; [4]): 10 µM
SMILES: CCOC(=O)C=CC=Cc1cc2cc(OC)ccc2n1C(=O)c1ccc(Cl)cc1 [Example 17, Ethyl 5-(1-p-chlorobenzoyl-5-methoxyindol-2-yl)-2,4-Pentadienoate]

IC50 (5-lipoxygenase; [4]): 2 µM
SMILES: CCOC(=O)c1ccc(NC(=O)C=CC=Cc2cn(Cc3ccccc3)c3ccccc23)cc1 [Example 3, N-(4-Carbethoxyphenyl)-5-(1-benzylindol-3-yl)-2,4-Pentadienamide]

IC50 (5-lipoxygenase; [4]): 10 µM
SMILES: CCOC(=O)C=CC=Cc1cc2cc(OC)ccc2[nH]1 [Example 16, Ethyl 5-(5-methoxyindol-2-yl)-2,4-Pentadienoate]
inhibition at 30 µM ([1]; Cavia porcellus, at 30 μM, 0.2 μM leukotriene C4-induced contraction, read-out: SALTI, % I at 30 μM): 53%

IC50 [1, 5]: 2 µM
IC50 (5-lipoxygenase; [4]): 12 µM
SMILES: CCOC(=O)C=CC=Cc1c[nH]c2ccccc12 [Example 10, Ethyl 5-(indol-3-yl)-2,4-Pentadienoate]

IC50 (5-lipoxygenase; [4]): 10 µM
SMILES: CCOC(=O)C=CC=Cc1cn(Cc2ccccc2)c2ccccc12 [Example 1, Ethyl 5-(1-Benzylindol-3-yl)-2,4-Pentadienoate]

IC50 (5-lipoxygenase; [4]): 2 µM
SMILES: O=C(O)C=CC=Cc1cn(Cc2ccccc2)c2ccc(OCc3ccccc3)cc12 [Example 5, 5-(1-Benzyl-5-Benzyloxyindol-3-yl)-2,4-Pentadienoic Acid]
